In data set [1] the test system is mice. Description: Acetic acid-induced writhing test in mice. The format is in vivo. The following applies: for Number of writhings, n (Mean ± SEM): 15 minutes count. How it is done: The acetic acid-induced writhing test is a model of a chemical nociceptive stimulus applied by the intraperitoneal injection of acetic acid solution.
Intraperitoneal injection of substances that irritate serous membranes in mice induces distinctive movements, including contractions of abdominal muscles followed by muscle relaxation, extension of the hind limbs and curving of the back, known as writhing. Mice were given an intraperitoneal injection of 1% acetic acid at a dose of 0.1 mL per 10 g body weight. After the injection the mice were placed in transparent acrylic chambers and counted the number of writhings in each animal for the next 15 minutes. The analgesic effect was evaluated by a reduction in the number of writhings in mice that received the study drug relative to the control group. […] Writhing onset latency in mice was used as an additional parameter for evaluating the efficacy of the substance in the acetic acid-induced writhing test.

The subject of data set [2] is rats. Description: Hot plate test in rats. The following applies: for HPL, s (Mean ± SEM): hot plate 52° C. Type of data set: in vivo. How it is done: The “Hot Plate” test is based on the reflex that rat licking its' feet when the animal comes in contact with a hot surface. The device is a metal surface with a diameter of 30 cm whose temperature is controlled by software. The site is enclosed by a transparent fence with a height of 40 cm. The temperature of the metal pad was set at exactly 52° C. When placing the animal on the surface, you measure the time until the moment when the animal licks its' foot. When analgesics are administered, the time before the rat licks its' feet increases. The licking latency (HPL) of 40 seconds was used as the maximum allowable time of stimulation. The study was conducted on male rats weighing 160-180 g, 6 animals per dose.
On the technique in general: Hot-plate and tail-flick tests time the reaction to a heat stimulus.

Data set [3] concerns mice. As to conditions: published data, cited from earlier work.
The test system of data set [4] is mice. Description: Open field test and toxicity of high doses in mice. The format is in vivo. As to conditions: open field, 20 EC50 doses (120 mg/kg). The method, then: Testing of the influence of the injectable substance based on tetrapeptide (as in example 2) H-Tyr-D-Arg-Phe-Gly-NH2 on the behavior of animals, was provided in the study of the toxicity of high doses of the “open field” test and maintaining balance on a horizontal rod.
The aim of the experiment was to identify an effective dose of the substance that affects the behavior of the animals. It was tested on several animals after administration of different doses of peptide compound.
The experimental and control groups of male mice were taken from the same batch, about the same weight (22-24 g).
The substance was injected intraperitoneally in identical weight amounts to laboratory animals in the experimental and control groups, respectively. […] The measurement was started 15 minutes after injection.
Several groups were organized: without the introduction of the substance, and with the introduction of a solution of morphine or peptide. After 15 from injection we conducted measurement in the following order:
Each animal tested was introduced into a round, not brightly lit arena. The surface is divided into square blocks of 10 cm each. We count locomotor activity of the mouse when it crossed the square. The movement of the mouse in the center of the arena and on the periphery, are recorded separately. We registered the number of times the mouse stands on its hind legs “stand” and the number of times the mouse looks into a “burrow”—ie. holes in the floor. Observations were done visually and were simultaneously entered into a computer using a keyboard (semi-automatic registration).

Data set [5] has as its target opioid μ-receptors located on GPI (Cavia porcellus, UniProt A0ACM8Q262). Briefly: Inhibition of electrically stimulated contractions of isolated guinea pig ileum (GPI). The format is cell-based. On the set-up: amplitude: unit not given here. The method, then:
Effect was assessed by ability to inhibit the contraction caused by electrical stimulation of isolated organs—guinea pig ileum (GPI). Work was carried out on a special apparatus for testing substances for opioid activity on the model of guinea pig ileum. GPI, taken from nonlinear animals were placed in a 10 ml volumetric flask with electrodes inserted containing Krebs solution at 34° C. in a water bath (HOECHST Organbad, Germany) with a thermostat for maintaining a constant temperature in the working cell. The lower end of the GPI is fixed to the vessel at the bottom. The upper end of the ligature was attached to the sensor strength registration device (sensors isometric registration K-30, “Hugo Sachs Elektronik KG”, Germany). The initial tension of the organs was 1 gram. The solution with placed in GPI was being constantly aerated. GPI segments were equilibrated in the Krebs solution for one hour.
GPI contractions were stimulated by plate electrodes with electrical impulses in a series of four rectangular pulses each lasting 0.5 ms and with 1.5 ms intervals, with delays at 7.5 sec. between the series and voltage 80V using a generator of electric impulses (type 215/I, Hugo Sachs Elektronik, Germany). Registration was performed in isometric contraction mode using K30 sensors via two channel amplifiers MS 6601 (“Watanabe”, Japan).
At the beginning stimulation was applied for a minimum of 45 minutes, which allowed reproducible responses to be established.
The tested substance was administered in a solution bathing the organs in a volume of 0.005 to 0.015 ml, to final concentrations of 1×10^−9-1×10^−6 M. Each subsequent introduction of the substance was done 1 minute after the previous dose without washing the organs, on a cumulative basis. […] Active substances were expressed on an indicator pD2 (numerically equal to the negative decimal logarithm of the concentration of a substance that causes 50% of the maximum effect). In other words, the potency of the opioid receptor agonists in the absence and presence of the antagonist was assessed as the negative logarithm of the concentration required to cause 50% of the maximum response (pD2) using the logistic equation described by DeLean A. et al.
During the experiment, the change in GPI amplitude contractions was taken into account and was fixed. Parallel monitoring in 4 chambers with GPI segments for each substance was used.

In data set [6] the test system is mice. As to conditions: subcutaneously to mice, acute pain, ringer solution; application JPS6054400; cited from earlier work.

Read-outs that look alike come from different tables or passages of the source. [ ]: non-standard residue; d: D form. Sar = CNCC(=O)O

Chain of opioid μ-receptors located on GPI (A0ACM8Q262 1-400): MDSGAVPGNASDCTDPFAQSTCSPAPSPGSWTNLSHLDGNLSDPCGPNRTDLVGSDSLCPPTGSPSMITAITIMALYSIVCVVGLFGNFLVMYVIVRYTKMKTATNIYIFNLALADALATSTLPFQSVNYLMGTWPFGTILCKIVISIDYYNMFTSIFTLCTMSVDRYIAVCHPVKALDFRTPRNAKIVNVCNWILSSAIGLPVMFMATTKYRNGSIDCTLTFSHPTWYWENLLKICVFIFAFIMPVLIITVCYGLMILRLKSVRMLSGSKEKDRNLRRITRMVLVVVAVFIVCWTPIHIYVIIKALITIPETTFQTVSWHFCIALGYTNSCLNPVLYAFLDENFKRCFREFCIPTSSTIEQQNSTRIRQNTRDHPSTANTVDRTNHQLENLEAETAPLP

As for `CN1CC[C@]23c4c5ccc(O)c4O[C@H]2[C@@H](O)C=C[C@H]3[C@H]1C5` [Morphine, reference compound], the “% of mice w/o writhing” value is recorded as 14.3% in data set [1] (1 mg/kg subcutaneous) and 37.5% in data set [1] (3 mg/kg subcutaneous). Further, the “Number of mice w/o writhing/number of mice in group” value in data set [1] (1 mg/kg subcutaneous) was 1/7; in data set [1] (3 mg/kg subcutaneous), 3/8. The figures for the “Writhing onset latency, s (Mean ± SEM)” value in data set [1] (1 mg/kg subcutaneous) and in data set [1] (3 mg/kg subcutaneous) were 467.1 ± 74.41 s and 695.0 ± 85.00 s, respectively. Also, the figures for the “Number of writhings, n (Mean ± SEM)” value in data set [1] (1 mg/kg subcutaneous 40 minutes before acetic acid) and in data set [1] (3 mg/kg subcutaneous 40 minutes before acetic acid) were 12.4 ± 3.73 n and 2.1 ± 0.83 n, respectively. In addition, the results for the “Proportion of the maximum possible effect (MPE), %” value in data set [2] (5 mg/kg subcutaneous) and in data set [2] (15 mg/kg subcutaneous) were 68.6% and 95.7%, respectively. Further, the entries for the “HPL, s (Mean ± SEM)” value in data set [2] (5 mg/kg subcutaneous) and in data set [2] (15 mg/kg subcutaneous) were 27.45 ± 4.4 s and 38.31 ± 2.63 s, respectively. Besides, the “antinociceptive activity, % of MPE” value is reported as 50% in data set [3] (dosage 7 mg/kg), 75% in data set [3] (dosage 10 mg/kg) and 95% in data set [3] (dosage 20 mg/kg). The physical activity reduced in data set [4] is 50-70%.

On to H-Y[dR]FG-NH2 [TP1], for which the amplitude in data set [5] (concentration 1.0E−09 M) was 38.7; in data set [5] (concentration 1.4E−06 M), 9.3; in data set [5] (concentration 1.4E−07 M) it was 23.0; in data set [5] (concentration 1.4E−08 M), 36.0; in data set [5] (concentration 4.0E−09 M), 38.7; in data set [5] (concentration 4.4E−07 M) it was 15.7. Further, the amplitude in data set [5] (concentration 4.4E−08 M) was determined as 30.3. Besides, the inhibit. effect in data set [5] (concentration 1.0E−09 M) was 0.0%; in data set [5] (concentration 1.4E−06 M) it was 76.6%; in data set [5] (concentration 1.4E−07 M) it was 41.1%; in data set [5] (concentration 1.4E−08 M) it was 7.0%; in data set [5] (concentration 4.0E−09 M), 0.0%; in data set [5] (concentration 4.4E−07 M) it was 61.1%. Also, the inhibit. effect in data set [5] (concentration 4.4E−08 M) is on record as 22.9%. Also, the “analgesic action, times the activity of morphine” value in data set [6] is “more than 6 times”.

For H-Y[dR]F[Sar]-OH [TP2], the amplitude in data set [5] (concentration 1.0E−09 M) was found to be 38.2; in data set [5] (concentration 1.4E−06 M), 8.6; in data set [5] (concentration 1.4E−07 M), 22.0; in data set [5] (concentration 1.4E−08 M) it was 35.3; in data set [5] (concentration 4.0E−09 M), 38.2; in data set [5] (concentration 4.4E−07 M) it was 15.2. Moreover, in data set [5] (concentration 4.4E−08 M), the amplitude came to 29.7. For the same compound, the inhibit. effect in data set [5] (concentration 1.0E−09 M) is on record as 0.0%; in data set [5] (concentration 1.4E−06 M), 77.5%; in data set [5] (concentration 1.4E−07 M) it was 42.4%; in data set [5] (concentration 1.4E−08 M) it was 7.6%; in data set [5] (concentration 4.0E−09 M), 0.0%; in data set [5] (concentration 4.4E−07 M), 60.2%. The compound also yielded an inhibit. effect in data set [5] (concentration 4.4E−08 M) of 22.2%.

The record behind these values is patent US10357533B2, “Drug for the effective control of acute and or chronic pain and a method for its administration” (PVP LABS PTE. LTD., priority 2016, dated 2019).
